Source: the supplement of paper PMC10331698
± gives the standard deviation of the averaged measurements.

Columns and labels:
Assay in all cases: level (log10 ratio to DMSO vehicle control); higher = higher biomarker level / cell amount than vehicle control
Settings in all cases: in DMSO
[1] = compound: COC(=O)C(F)(F)C(F)(F)OC(F)(C(F)(F)F)C(F)(F)OC(F)=C(F)F [Methyl perfluoro(3-(1-ethenyloxypropan-2-yloxy)propanoate)]
Protocol: (§1)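 BioMAP Diversity Plus panel of 12 human primary cell co-culture systems (3C, 4H, LPS, SAg, BT, BF4T, BE3C, CASM3C, HDF3CGF, KF3CT, MyoF, Mphg). Compounds were added 1 h before stimulation and left for 24 h (MyoF 48 h; BT 72 h for soluble read-outs or 6 d for IgG). Biomarkers were read by ELISA, cytotoxicity by SRB, PBMC viability and proliferation by Alamar Blue. Each well value was divided by the mean of 8 DMSO control wells on the same plate and log10 transformed; duplicate blinded samples were tested at 4 concentrations.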

Hexafluoroamylene glycol = compound: OCC(F)(F)C(F)(F)C(F)(F)CO [Hexafluoroamylene glycol]
Protocol: as §1

Octafluoroadipamide = compound: NC(=O)C(F)(F)C(F)(F)C(F)(F)C(F)(F)C(N)=O [Octafluoroadipamide]
Protocol: as §1

[2] = compound: O=S(=O)(F)C(F)(F)C(F)(F)C(F)(F)C(F)(F)C(F)(F)C(F)(F)C(F)(F)C(F)(F)F [Perfluorooctanesulfonyl fluoride]
Protocol: as §1

[3] = compound: FC(F)(F)C(F)(F)C(F)(F)C(F)(F)C(F)(F)C(F)(F)C(F)(F)I [1-Iodopentadecafluoroheptane]
Protocol: as §1

Nonafluoropentanamide = compound: NC(=O)C(F)(F)C(F)(F)C(F)(F)C(F)(F)F [Nonafluoropentanamide]
Protocol: as §1

[4] = compound: O=C(O)C=CC(F)(C(F)(F)F)C(F)(F)F [3-(Perfluoroisopropyl)-2-propenoic acid]
Protocol: as §1

| Test System | level (log10) ([1]; 6700 nM) | level (log10) ([1]; 20000 nM) | level (log10) (Hexafluoroamylene glycol; 6700 nM) | level (log10) (Hexafluoroamylene glycol; 20000 nM) | level (log10) (Hexafluoroamylene glycol; 60000 nM) | level (log10) (Octafluoroadipamide; 6700 nM) | level (log10) (Octafluoroadipamide; 20000 nM) | level (log10) (Octafluoroadipamide; 60000 nM) | level (log10) ([2]; 6700 nM) | level (log10) ([2]; 20000 nM) | level (log10) ([2]; 60000 nM) | level (log10) ([3]; 6700 nM) | level (log10) ([3]; 20000 nM) | level (log10) (Nonafluoropentanamide; 6700 nM) | level (log10) (Nonafluoropentanamide; 20000 nM) | level (log10) (Nonafluoropentanamide; 60000 nM) | level (log10) ([4]; 6700 nM) | level (log10) ([4]; 20000 nM) | level (log10) ([4]; 60000 nM) |
| --- | --- | --- | --- | --- | --- | --- | --- | --- | --- | --- | --- | --- | --- | --- | --- | --- | --- | --- | --- |
| HDF3CGF:CCL2/MCP-1 | 0.023 ± 0.0042 | 0.0305 ± 0.029 | -0.003 ± 0.0071 | -0.004 ± 0.0057 | 0.007 ± 0.0071 | 0.003 | -0.019 ± 0.028 | -0.0115 ± 0.005 | -0.0035 ± 0.028 | 0.007 ± 0.023 | -0.007 ± 0.072 | -0.0205 ± 0.025 | -0.0335 ± 0.0035 | -0.0025 ± 0.019 | 0.0065 ± 0.012 | 0.01 ± 0.035 | -0.006 ± 0.018 | 0.006 ± 0.0085 | 0.017 ± 0.017 |
| HDF3CGF:TIMP-1 | 0.0565 ± 0.011 | 0.117 ± 0.021 | -0.0155 ± 0.05 | -0.0145 ± 0.06 | -0.017 ± 0.1 | 0.002 ± 0.0071 | 0.0015 ± 0.012 | 0.0035 ± 0.021 | -0.0065 ± 0.00071 | 0.002 ± 0.0042 | -0.007 ± 0.0085 | -0.0185 ± 0.0021 | -0.024 ± 0.0042 | 0.0155 ± 0.059 | 0.0025 ± 0.05 | 0.0015 ± 0.0064 | -0.006 ± 0.014 | 0.0105 ± 0.015 | 0.007 ± 0.0057 |
| HDF3CGF:CXCL11/I-TAC | -0.0285 ± 0.018 | -0.272 ± 0.0078 | 0.001 ± 0.04 | -0.015 ± 0.088 | -0.044 ± 0.1 | -0.0025 ± 0.011 | 0 ± 0.023 | 0.018 ± 0.0014 | -0.0035 ± 0.0021 | -0.012 ± 0.0028 | -0.0155 ± 0.0021 | -0.019 ± 0.0057 | -0.0405 ± 0.0092 | -0.0095 ± 0.021 | 0.009 ± 0.024 | -0.0155 ± 0.011 | -0.004 ± 0.0014 | 0.015 ± 0.025 | 0.002 ± 0.021 |
| lMphg:IL-1alpha | 0.0435 ± 0.035 | 0.118 ± 0.0021 | 0.005 ± 0.02 | 0.015 ± 0.027 | 0.029 ± 0.061 | -0.0135 ± 0.016 | -0.044 ± 0.016 | -0.014 ± 0.065 | 0.01 ± 0.013 | -0.0025 ± 0.005 | 0.0185 ± 0.019 | 0.03 ± 0.045 | 0.014 ± 0.0085 | 0.0035 ± 0.047 | -0.0325 ± 0.047 | -0.017 ± 0.048 | -0.0055 ± 0.037 | 0.0095 ± 0.016 | -0.0025 ± 0.012 |
| KF3CT:CCL2/MCP-1 | -0.015 ± 0.0014 | 0.01 ± 0.0099 | 0.0125 ± 0.005 | 0.012 ± 0.0085 | 0.0085 ± 0.021 | -0.017 ± 0.0085 | -0.026 ± 0.013 | -0.001 ± 0.021 | -0.0055 ± 0.0035 | -0.0305 ± 0.033 | 0.001 ± 0.052 | 0.0065 ± 0.0092 | 0.0015 ± 0.016 | 0.0175 ± 0.032 | 0.02 ± 0.0042 | 0.0215 ± 0.018 | -0.012 ± 0.017 | 0 ± 0.027 | 0.0105 ± 0.053 |
| HDF3CGF:PAI-I | 0.107 ± 0.0099 | 0.0875 ± 0.00071 | 0.0045 ± 0.0035 | 0.006 ± 0.038 | -0.0145 ± 0.0021 | 0.018 ± 0.0099 | 0.018 ± 0.0014 | 0.009 ± 0.0014 | 0.0235 ± 0.12 | 0.035 ± 0.013 | 0.101 ± 0.033 | -0.044 ± 0.0071 | -0.064 ± 0.023 | -0.014 ± 0.078 | 0.0005 ± 0.059 | 0.0125 ± 0.019 | -0.0085 ± 0.018 | -0.0215 ± 0.015 | -0.0005 ± 0.032 |
| 3C:CD141/Thrombomodulin | -0.036 ± 0.02 | -0.028 ± 0.034 | 0.0175 ± 0.052 | -0.01 ± 0.033 | -0.011 ± 0.088 | 0.0505 ± 0.044 | 0.048 ± 0.02 | 0.064 ± 0.0099 | -0.021 ± 0.0099 | -0.0235 ± 0.026 | -0.0245 ± 0.028 | -0.0215 ± 0.071 | -0.008 ± 0.081 | -0.0635 ± 0.074 | -0.0235 ± 0.0035 | -0.069 ± 0.051 | -0.0125 ± 0.023 | -0.006 ± 0.0057 | 0.0045 ± 0.016 |
| HDF3CGF:CXCL10/IP-10 | -0.018 ± 0.062 | -0.203 ± 0.03 | -0.009 | -0.0135 ± 0.029 | -0.028 ± 0.051 | 0.011 ± 0.0028 | -0.0045 ± 0.016 | 0.031 ± 0.03 | -0.0005 ± 0.0021 | -0.015 ± 0.011 | -0.012 ± 0.014 | 0.0025 ± 0.0021 | -0.026 ± 0.0071 | -0.012 ± 0.0014 | -0.0055 ± 0.00071 | -0.004 ± 0.0014 | -0.007 ± 0.034 | 0.0025 ± 0.035 | -0.001 ± 0.027 |
| 4H:SRB | -0.0015 ± 0.00071 | 0.007 ± 0.014 | -0.0055 ± 0.0035 | -0.004 ± 0.0071 | 0.005 ± 0.02 | -0.0065 ± 0.022 | -0.001 ± 0.025 | -0.003 ± 0.013 | 0.0015 ± 0.00071 | 0.001 ± 0.0028 | -0.0035 ± 0.0064 | 0.0015 ± 0.0092 | 0.0125 ± 0.005 | -0.0055 ± 0.00071 | -0.0055 ± 0.011 | 0.0055 ± 0.021 | 0.001 ± 0.018 | -0.0045 ± 0.029 | 0.004 ± 0.021 |
| BE3C:tPA | -0.114 ± 0.033 | -0.142 ± 0.018 | -0.0205 ± 0.00071 | -0.02 ± 0.0057 | 0.011 ± 0.031 | -0.0485 ± 0.00071 | -0.0395 ± 0.037 | -0.011 ± 0.052 | -0.045 ± 0.075 | -0.027 ± 0.034 | -0.027 ± 0.027 | -0.006 ± 0.0042 | 0.0075 ± 0.022 | 0.003 ± 0.0085 | 0.008 ± 0.017 | 0.0095 ± 0.012 | -0.004 ± 0.045 | -0.0215 ± 0.042 | 0.022 ± 0.0071 |
| CASM3C:CD141/Thrombomodulin | -0.0085 ± 0.005 | 0.023 ± 0.018 | 0.009 ± 0.041 | 0 ± 0.05 | 0.0135 ± 0.037 | 0.0225 ± 0.0064 | 0.0095 ± 0.019 | 0.007 ± 0.02 | -0.004 ± 0.0042 | -0.01 ± 0.0014 | -0.0075 ± 0.005 | -0.0595 ± 0.021 | -0.0445 ± 0.021 | 0.011 ± 0.089 | -0.024 ± 0.064 | -0.0285 ± 0.06 | -0.0215 ± 0.011 | -0.001 ± 0.023 | 0.0075 ± 0.033 |
| CASM3C:M-CSF | -0.0075 ± 0.036 | 0.01 ± 0.025 | -0.0075 ± 0.013 | -0.0195 ± 0.028 | 0.0135 ± 0.044 | -0.0095 ± 0.0078 | -0.01 ± 0.0085 | -0.0065 ± 0.0092 | 0.0005 ± 0.013 | -0.0185 ± 0.028 | 0.0085 ± 0.021 | -0.0285 ± 0.019 | 0.0225 ± 0.052 | -0.0105 ± 0.0021 | -0.0075 ± 0.019 | 0.0195 ± 0.035 | -0.0195 ± 0.0078 | -0.0175 ± 0.011 | 0.009 ± 0.034 |
| KF3CT:TIMP-2 | 0.0105 ± 0.018 | 0.0265 ± 0.0092 | -0.0095 ± 0.026 | -0.019 ± 0.0085 | -0.007 ± 0.014 | -0.0175 ± 0.00071 | -0.0085 ± 0.018 | 0.0265 ± 0.0021 | -0.016 ± 0.016 | -0.0245 ± 0.022 | -0.019 ± 0.038 | -0.009 ± 0.021 | -0.0225 ± 0.00071 | -0.0245 ± 0.0092 | -0.007 ± 0.011 | 0.011 ± 0.037 | -0.01 ± 0.013 | 0.007 ± 0.031 | 0.0205 ± 0.023 |
| CASM3C:Serum Amyloid A | 0.007 ± 0.011 | 0.009 ± 0.023 | 0.016 ± 0.014 | -0.0055 ± 0.069 | 0.002 ± 0.0014 | 0.012 ± 0.014 | 0.0085 ± 0.0092 | 0.0185 ± 0.028 | 0.0225 ± 0.0092 | 0.0245 ± 0.0078 | 0.0185 ± 0.011 | -0.035 | 0.008 ± 0.024 | -0.016 ± 0.018 | -0.018 ± 0.0057 | 0.008 ± 0.013 | 0.0085 ± 0.005 | -0.023 ± 0.017 | 0.026 ± 0.045 |
| MyoF:alpha-SM Actin | -0.023 ± 0.021 | -0.043 ± 0.047 | 0.024 ± 0.0085 | 0.0155 ± 0.013 | 0.025 ± 0.02 | 0.022 ± 0.061 | 0.0315 ± 0.056 | 0.0385 ± 0.032 | -0.0005 ± 0.015 | 0.004 ± 0.018 | 0.0055 ± 0.021 | -0.115 ± 0.016 | -0.291 ± 0.045 | -0.023 ± 0.027 | 0.0035 ± 0.04 | -0.0055 ± 0.063 | 0.0065 ± 0.021 | 0 ± 0.054 | 0.0245 ± 0.011 |
